Consider 1 compound from paper PMC6219699 (Nuclear medicine communications, 2011).

Molecules are shown by their SMILES.

This assay has as its target T1, human sodium/iodide symporter (hNIS) (Homo sapiens, UniProt Q92911).
T1 sequence (Q92911 1-643): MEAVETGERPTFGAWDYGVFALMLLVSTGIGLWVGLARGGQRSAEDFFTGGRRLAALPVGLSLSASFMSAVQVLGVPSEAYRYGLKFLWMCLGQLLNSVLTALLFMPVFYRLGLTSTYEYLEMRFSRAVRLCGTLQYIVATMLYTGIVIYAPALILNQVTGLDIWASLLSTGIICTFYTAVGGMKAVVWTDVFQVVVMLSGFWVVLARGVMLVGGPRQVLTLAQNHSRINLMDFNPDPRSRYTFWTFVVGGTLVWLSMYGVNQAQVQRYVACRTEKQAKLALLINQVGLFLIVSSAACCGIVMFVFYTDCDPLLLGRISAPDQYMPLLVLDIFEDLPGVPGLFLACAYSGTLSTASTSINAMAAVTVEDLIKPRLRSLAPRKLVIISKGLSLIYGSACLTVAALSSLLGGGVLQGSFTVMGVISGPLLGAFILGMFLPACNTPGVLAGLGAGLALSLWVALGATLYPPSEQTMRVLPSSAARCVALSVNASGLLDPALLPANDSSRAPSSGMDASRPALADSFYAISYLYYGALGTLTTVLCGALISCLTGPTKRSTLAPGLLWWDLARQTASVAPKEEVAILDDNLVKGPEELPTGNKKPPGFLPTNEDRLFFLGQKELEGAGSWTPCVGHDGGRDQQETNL
The format is cell-based.

In turn, `F[B-](F)(F)F` [tetrafluoroborate] returned a half-inhibitory concentration (IC50) of 740 nM.

As usually defined, the IC50 is the point on the concentration scale where inhibition reaches its midpoint. Low readings indicate higher potency, high ones lower potency.
